Usually IC50 stands for the concentration that gives 50% inhibition.

The test system of this experiment is human peripheral blood mononuclear cells. Kind of experiment: Inhibition of LPS-stimulated TNFα release from human peripheral blood mononuclear cells (TNFα screen). In kind it is cell-based. Particulars: LPS-stimulated human PBMC, 18 hours incubation, TNFα in supernatant by ELISA. As for the experimental part: Venous blood is collected from healthy volunteers and the mononuclear cells purified by centrifugation through Histopaque (Ficoll) cushions. TNFα production from these cells is stimulated by addition of lipopolysaccharide. After 18 hours incubation in the presence of LPS, the cell supernatant is removed and the concentration of TNFα in the supernatant determined by ELISA.
(In general: ELISA stands for enzyme-linked immunosorbent assay.)
On to `CSc1cccc(Oc2ncc(F)cc2C(=O)N[C@H]2CC[C@@H](NC(=O)c3ccc(CO)cc3O)CC2)c1` [Example 2, Syn-5-Fluoro-N-[4-(2-hydroxy-4-hydroxymethyl-benzoylamino)-cyclohexyl]-2-(3-methylsulfanyl-phenoxy)-nicotinamide], for which half-maximal inhibition (IC50) was put at 0.6 nM.
`CSc1cccc(Oc2ncc(F)cc2C(=O)N[C@H]2CC[C@@H](NC(=O)c3cn(CCO)cn3)CC2)c1` [Example 3, Syn-5-Fluoro-N-(4-{[1-(2-hydroxy-ethyl)-1H-imidazole-4-carbonyl]-amino}-cyclohexyl)-2-(3-methylsulfanyl-phenoxy)-nicotinamide] gave a half-maximal inhibitory concentration (IC50) of 1.6 nM.
The value for `CSc1cc(Oc2ncc(F)cc2C(=O)N[C@H]2CC[C@@H](NC(=O)c3ccccc3OCCO)CC2)ccc1F` [Example 9, Syn-5-Fluoro-2-(4-fluoro-3-methylsulfanyl-phenoxy)-N-{4-[2-(2-hydroxy-ethoxy)-benzoylamino]-cyclohexyl}-nicotinamide] was 0.36 nM; that for `CSc1cccc(Oc2ncc(F)cc2C(=O)N[C@H]2CC[C@@H](NC(=O)c3cc(C(C)C)n(CCO)n3)CC2)c1` [Example 10, Syn-5-Fluoro-N-(4-{[1-(2-hydroxy-ethyl)-5-isopropyl-1H-pyrazole-3-carbonyl]-amino}-cyclohexyl)-2-(3-methylsulfanyl-phenoxy)-nicotinamide] was 2.5 nM; that for “Syn-5-Chloro-N-{4-[2-(2-hydroxy-ethoxy)-benzoylamino]-cyclohexyl}-2-(3-methylsulfanyl-phenoxy)-nicotinamide [Example 18]” was 0.15 nM.
Compound “Syn-5-Fluoro-N-(4-{[1-(2-hydroxy-ethyl)-1H-pyrazole-3-carbonyl]-amino}-cyclohexyl)-2-(3-methylsulfanyl-phenoxy)-nicotinamide [Example 5]” gave an IC50 of 0.24 nM.
Compound “Syn-5-Fluoro-N-(4-{[1-(2-hydroxy-ethyl)-1H-pyrazole-4-carbonyl]-amino}-cyclohexyl)-2-(3-methylsulfanyl-phenoxy)-nicotinamide [Example 7]” had an IC50 of 4.6 nM.
The value for “Syn-5-Fluoro-N-(4-{[1-(2-hydroxy-ethyl)-5-methyl-1H-pyrazole-3-carbonyl]-amino}-cyclohexyl)-2-(3-methylsulfanyl-phenoxy)-nicotinamide [Example 8]” was 0.2 nM; that for “Syn-5-Fluoro-N-{4-[2-(2-hydroxy-ethoxy)-3-methyl-benzoylamino]-cyclohexyl}-2-(3-methylsulfanyl-phenoxy)-nicotinamide [Example 13]” was 0.07 nM; that for “Syn-5-Fluoro-N-{4-[2-(2-hydroxy-ethoxy)-4-methyl-benzoylamino]-cyclohexyl}-2-(3-methylsulfanyl-phenoxy)-nicotinamide [Example 12]” was 0.3 nM.
With “Syn-5-Fluoro-N-{4-[2-(2-hydroxy-ethoxy)-5-methyl-benzoylamino]-cyclohexyl}-2-(3-methylsulfanyl-phenoxy)-nicotinamide [Example 11]”, the half-inhibitory concentration (IC50) was 0.8 nM.
Then “Syn-N-(4-{[5-Ethyl-1-(2-hydroxy-ethyl)-1H-pyrazole-3-carbonyl]-amino}-cyclohexyl)-5-fluoro-2-(3-methylsulfanyl-phenoxy)-nicotinamide [Example 17]”, with 0.05 nM; and “Syn-N-{4-[4-Chloro-2-(2-hydroxy-ethoxy)-benzoylamino]-cyclohexyl}-5-fluoro-2-(3-methylsulfanyl-phenoxy)-nicotinamide [Example 15]”, with 1.6 nM.
Compound “Syn-N-{4-[5-Chloro-2-(2-hydroxy-ethoxy)-benzoylamino]-cyclohexyl}-5-fluoro-2-(3-methylsulfanyl-phenoxy)-nicotinamide [Example 14]” gave an IC50 of 0.6 nM.

Values taken from patent US7056934B2, “Nicotinamide derivatives useful as PDE4 inhibitors” (Pfizer Inc, priority 2003, dated 2006).
